Test results reported in ChEMBL document CHEMBL2016519, “A comparative study of backbone versus side chain peptide cyclization: application for HIV-1 integrase inhibitors” (Bioorg Med Chem, 2012).
The source made the active and inactive calls. No cut-off for these calls is given here. Starred links: 1 amine or outer side, 2 acyl side, 3 side chain; linkers in the order of their positions; H or OH if unused. Positions of bridges follow the written chain, without caps; N, C: chain ends. Non-standard residues stand in square brackets, D forms with d. Residues, ends and D or L forms follow the SMILES beside them. ξ: configuration not given here. X1 = NC(CC(=O)[*:1])C(=O)[*:2]; ξOrn = NCCCC(N)C(=O)O; Nlys = NCCCCNCC(=O)O; ξK = NCCCCC(N)C(=O)O

Tests used:
[1] = Stability in trypsin and chymotrypsin extract assessed as duration showing initiation of compound degradation at 37 degC by mass spectrometry; assay type: ADME
[2] = Binding affinity to His-tagged HIV-1 integrase C56S, W131D, F185K and […] mutant by fluorescence anisotropy; parameters: species or system Human immunodeficiency virus 1
[3] = test system: Human immunodeficiency virus 1; experiment: Inhibition of His-tagged HIV-1 integrase C56S, W131D, F185K and […] mutant at 20 uM by fluorescence anisotropy
[4] = test system: Human immunodeficiency virus 1; experiment: Antiviral activity against wild type HIV1 infected in human H9 cells assessed as p24 protein expression pre-incubated with cells for 2 hrs at 12.5 uM measured after 8 days post infection using multiple dose study wherein additional dose was added every 2 days; assay type: functional; details: for inhibition at 12.5 µM: Human immunodeficiency virus 1, H9
[5] = test system: Human immunodeficiency virus 1; experiment: Antiviral activity against wild type HIV1 infected in human H9 cells assessed as p24 protein expression pre-incubated with cells for 2 hrs at 12.5 uM measured after 6 days post infection using multiple dose study wherein additional dose was added every 2 days; assay type: functional; details: for inhibition at 12.5 µM: Human immunodeficiency virus 1, H9
[6] = test system: Human immunodeficiency virus 1; experiment: Antiviral activity against wild type HIV1 infected in human H9 cells assessed as p24 protein expression pre-incubated with cells for 2 hrs at 12.5 uM measured after 8 days post infection using single dose study; assay type: functional; details: for inhibition at 12.5 µM: Human immunodeficiency virus 1, H9
[7] = test system: Human immunodeficiency virus 1; experiment: Antiviral activity against wild type HIV1 infected in human H9 cells assessed as p24 protein expression pre-incubated with cells for 2 hrs at 12.5 uM measured after 6 days post infection using single dose study; assay type: functional; details: for inhibition at 12.5 µM: Human immunodeficiency virus 1, H9

Row | Molecule | Stability [1] [min] | Kd [2] [µM] | inhibition [3] [%] | inhibition [4] | inhibition [5] | inhibition at 12.5 µM [6] [%] | inhibition at 12.5 µM [7] [%] | inhibition at 12.5 µM [4] [%] | inhibition at 12.5 µM [5] [%] | inhibition [6] | inhibition [7]
1 | CC[C@H](C)[C@@H]1NC(=O)[C@H](CCCCN)NC(=O)[C@H](CC(C)C)NC(=O)[C@H](CO)NC(=O)[C@H](CC(N)=O)NC(=O)[C@H](Cc2c[nH]c3ccccc23)NC(=O)CC(N)C(=O)NCCCCN(CC(N)=O)C(=O)[C@H](C(C)C)NC(=O)[C@H](CC(=O)O)NC(=O)[C@H](CC(C)C)NC(=O)[C@H](CC(N)=O)NC(=O)[C@H](CC(=O)O)NC1=O (stereo partly drawn) (WNSLKIDNLDV[Nlys]-NH2; linker N-12 via X1) | 150 | 5 | 90 | Active | Active | 90 | 90 | – | – | – | –
2 | CC[C@H](C)[C@@H]1NC(=O)[C@H](CCCCN)NC(=O)[C@H](CC(C)C)NC(=O)[C@H](CO)NC(=O)[C@H](CC(N)=O)NC(=O)[C@H](Cc2c[nH]c3ccccc23)NC(=O)CC(N)C(=O)NCCCCC(C(N)=O)NC(=O)[C@H](C(C)C)NC(=O)[C@H](CC(=O)O)NC(=O)[C@H](CC(C)C)NC(=O)[C@H](CC(N)=O)NC(=O)[C@H](CC(=O)O)NC1=O (stereo partly drawn) (WNSLKIDNLDV[ξK]-NH2; linker N-12 via X1) | 150 | 2.5 | 55 | – | – | 65 | 80 | 85 | 85 | – | –
3 | H-WNSLKIDNLDV-OH | 30 | 5.1 | 83 | Active | Active | – | – | – | – | inactive | inactive
4 | CC[C@H](C)[C@@H]1NC(=O)[C@H](CCCCN)NC(=O)[C@H](CC(C)C)NC(=O)[C@H](CO)NC(=O)[C@H](CC(N)=O)NC(=O)[C@H](Cc2c[nH]c3ccccc23)NC(=O)CC(N)C(=O)NCCCC(C(N)=O)NC(=O)[C@H](C(C)C)NC(=O)[C@H](CC(=O)O)NC(=O)[C@H](CC(C)C)NC(=O)[C@H](CC(N)=O)NC(=O)[C@H](CC(=O)O)NC1=O (stereo partly drawn) (WNSLKIDNLDV[ξOrn]-NH2; linker N-12 via X1) | 150 | 2 | 50 | – | – | 25 | 25 | 40 | 40 | – | –
